Data as given in patent US7271161B2, “Platinum complexes as antitumor agents in combination with biochemical modulation” (Board of Regents, the University of Texas System, priority 2002, dated 2007).
Like-named read-outs stand apart in the source and are kept apart here.

Assays:
Human A2780 cell line = experiment: MTT cytotoxicity assay, cisplatin-sensitive ovarian A2780 cells, with or without BSO; assay type: cell-based; design: key to DMF vs. A2780 Control (Without BSO): DMF = IC50 without BSO / IC50 with BSO; details: for DMF vs. A2780 +10 μM BSO (MTC): IC50 without BSO / IC50 with 10 μM BSO (MTC); for DMF vs. A2780 Control (Without BSO): without BSO (reference)
Text: (§1) The ovarian A2780 and 2008 cell lines are sensitive to cisplatin, while the corresponding 2780CP and 2008/C13* cell lines were selected for resistance following in vitro exposure to cisplatin. The SKOV-3 cell line was established from a patient who was resistant to cisplatin therapy and is considered a model of cisplatin resistance. The A2780 and 2780CP cells have wild-type p53 function, while SKOV-3 is devoid of p53 function. The p53 status for the 2008 and 2008/C131 cells is presently not known.
(§2) Procedure for Cytotoxic Evaluation. All cell lines are maintained in RPMI 1640 medium supplemented with 10% fetal bovine serum, 50 μg/ml penicillin, 50 μg/ml streptomycin, 100 μg/ml neomycin and 0.3 mg/ml L-glutamine. The ovarian lines also require 2 μg/ml insulin for maximal growth. Cells are grown as monolayers at 37° C. in a humidified atmosphere of 5% CO2:95% air. Cytotoxicity is determined by a standard MTT assay. Briefly, the exponentially-growing cells are trypsinized to dislodge them before use. After diluting the tumor cells to appropriate concentrations (2,000-30,000 cells/ml), 100 μl aliquots of the cell suspensions are added to each well of a 96-well microtiter plate. The cells are allowed to attach overnight, and then exposed for 24 hr to BSO at a concentration that is equal to or less than maximally tolerated concentration (MTC). At 22 hr after addition of BSO, the platinum complex is added, and 2 hr later the cells are washed and reincubated. After another 5 days, when control cells are in an exponential phase of growth, 50 μl of an MTT solution (3 mg/ml) is added to each well. Following a 3-hr incubation, the medium is removed and replaced by 50 μl of 100% DMSO to dissolve MTT formazan crystals. Plates are agitated on a plate shaker for 5 min, and absorbances are measured at 570 nm in a multiwell scanning spectrophotometer.
(§3) IC50 values, defined as the drug concentration (μM) inhibiting cell growth by 50% compared to control wells, are determined by fitting a sigmoidal curve to the data using a computer program. Resistance factor is calculated as a ratio of the IC50 against resistant cell line to the IC50 against parent cell line. The dose modification factor (DMF) is derived from a ratio of IC50 without BSO to that with BSO.

Human 2780CP cell line = experiment: MTT cytotoxicity assay, cisplatin-resistant ovarian 2780CP cells, with or without BSO; assay type: cell-based; design: key to DMF vs. 2780CP Control (Without BSO) / DMF Control / DMF +BSO (MTC): DMF = IC50 without BSO / IC50 with BSO; details: for DMF vs. 2780CP +10 μM BSO: IC50 without BSO / IC50 with 10 μM BSO; for DMF vs. 2780CP +3 mM BSO (MTC): IC50 without BSO / IC50 with 3 mM BSO (MTC); for DMF vs. 2780CP Control (Without BSO): without BSO (reference)
Text: as §1, §2, §3

SKOV-3 cell line = experiment: MTT cytotoxicity assay, cisplatin-resistant SKOV-3 cells, with or without BSO; assay type: cell-based, Human; details: SKOV-3; for IC50: Table 4; for DMF +BSO (MTC) / DMF Control: Table 5; for DMF Control: absence of BSO (reference)
Text: as §1, §2, §3

[1] = +10 μM BSO (MTC), 24 hr BSO, read-out: IC50 (μM) vs. A2780 +10 μM BSO (MTC)
[2] = without BSO, 2 hr platinum exposure, MTT after 5 days, read-out: IC50 (μM) vs. A2780 Control (Without BSO)
[3] = +10 μM BSO, read-out: IC50 (μM) vs. 2780CP +10 μM BSO
[4] = +3 mM BSO (MTC), read-out: IC50 (μM) vs. 2780CP +3 mM BSO (MTC)
[5] = IC50 2780CP with 10 μM BSO / IC50 A2780 without BSO
[6] = IC50 2780CP with 3 mM BSO (MTC) / IC50 A2780 without BSO
[7] = IC50 2780CP without BSO / IC50 A2780 without BSO
[8] = without BSO, read-out: IC50 (μM) vs. 2780CP Control (Without BSO)
[9] = BSO at sub-MTC, read-out: IC50 +BSO (MTC)
[10] = absence of BSO, read-out: IC50 Control

Structure (SMILES)	IC50 (Human A2780 cell line; [1])	DMF vs. A2780 +10 μM BSO (MTC) (Human A2780 cell line)	DMF vs. A2780 Control (Without BSO) (Human A2780 cell line)	IC50 (Human A2780 cell line; [2])	IC50 (Human 2780CP cell line; [3])	IC50 (Human 2780CP cell line; [4])	Resistance Factor vs. 2780CP +10 μM BSO (Human 2780CP cell line; [5])	Resistance Factor vs. 2780CP +3 mM BSO (MTC) (Human 2780CP cell line; [6])	Resistance Factor vs. 2780CP Control (Without BSO) (Human 2780CP cell line; [7])	DMF vs. 2780CP +10 μM BSO (Human 2780CP cell line)	DMF vs. 2780CP +3 mM BSO (MTC) (Human 2780CP cell line)	DMF vs. 2780CP Control (Without BSO) (Human 2780CP cell line)	IC50 (Human 2780CP cell line; [8])	Resistance Factor vs. 2780CP +10 μM BSO (Human 2780CP cell line)	Resistance Factor vs. 2780CP +3 mM BSO (MTC) (Human 2780CP cell line)	Resistance Factor vs. 2780CP Control (Without BSO) (Human 2780CP cell line)	IC50 (SKOV-3 cell line; [9])	IC50 (SKOV-3 cell line; [10])	DMF +BSO (MTC) (SKOV-3 cell line; BSO at sub-MTC)	DMF Control (SKOV-3 cell line)
[NH2][Pt]([OH])([OH])([Cl])([Cl])[NH]C1CCCCC1 [Complex 16]	3.07 µM	1.16	1.00	3.55 µM	19.6 µM	8.92 µM	5.52	2.51	6.73	1.22	2.68	1.00	23.9 µM							
N[C@@H]1CCCC[C@H]1N.[OH][Pt+2]([OH])([Cl])[Cl] [Complex 14]	1.17 µM	1.07	1.00	1.25 µM	15.5 µM	9.54 µM	12.4	7.63	12.6	1.02	1.66	1.00	15.8 µM							
[NH2][Pt]([NH2])([Cl])[Cl] [Complex 1]	4.25 µM	1.59	1.00	6.75 µM	82 µM	58.3 µM				1.23	1.73	1.00	101 µM							
[NH2][Pt]([Cl])([Cl])[NH]C1CCCC1 [Complex 5, Ammine/cyclopentylamine-dichloro-platinum(II)]	0.66 µM	1.11	1.00	0.73 µM	14.5 µM	9.07 µM	19.9	12.4	20.8	1.05	1.68	1.00	15.2 µM							
[NH2][Pt]([Cl])([Cl])[NH]C1CC1 [Complex 3]	3.46 µM	1.05	1.00	3.64 µM	62.2 µM	48.8 µM	17.1	13.4	17.5	1.02	1.31	1.00	63.7 µM							
[NH2][Pt]([Cl])([Cl])[NH]C1CCCCCCC1 [Complex 8]	0.61 µM	1.26	1.00	0.77 µM	5.97 µM	2.35 µM	7.75	3.05	9.62	1.24	3.15	1.00	7.41 µM							
N[C@@H]1CCCC[C@H]1N.[Cl][Pt+2]([Cl])([Cl])[Cl] [Complex 13, Tetraplatin, reference compound]														4.12	2.77	5.28				
[Cl][Pt]1([Cl])([Cl])([Cl])[NH][C@@H]2CCCC[C@H]2[NH]1 (racemic) [Complex 13]	4.57 µM	1.86	1.00	8.48 µM	34.9 µM	23.5 µM				1.28	1.91	1.00	44.8 µM							
[NH2][Pt]([Cl])([Cl])[NH]C1CCC1 [Complex 4]	0.77 µM	1.34	1.00	1.03 µM	16 µM	15.8 µM	15.5	15.3	16.1	1.04	1.05	1.00	16.6 µM							
[NH2][Pt]([Cl])([Cl])[N]1CCCC1 [Complex 10]	2.9 µM	1.41	1.00	4.08 µM	28.2 µM	17.2 µM	6.91	4.22	9.12	1.32	2.16	1.00	37.2 µM							
[NH2][Pt]([Cl])([Cl])([Cl])([Cl])[NH]C1CCCCC1 [Complex 15]	0.72 µM	1.26	1.00	0.91 µM	10.8 µM	4.34 µM	11.9	4.77	16.9	1.43	3.55	1.00	15.4 µM							
CC(=O)[O][Pt]([NH2])([Cl])([Cl])([O]C(C)=O)[N]1CCCCCC1 [Complex 19]																	21.6 µM	100 µM	4.63	1.00
[Cl][Pt]1([Cl])[NH][C@@H]2CCCC[C@H]2[NH]1 [Complex 2]	0.41 µM	1.37	1.00	0.56 µM	3.69 µM	2.46 µM	6.59	4.39	8.23	1.25	1.87	1.00	4.61 µM							
[NH2][Pt]([OH])([OH])([Cl])([Cl])[N]1CCCCCC1 [Complex 18]																	14.2 µM	140 µM	9.86	1.00
[NH2][Pt]([Cl])([Cl])[N]1CCC1 [Complex 9]	3.02 µM	1.41	1.00	4.27 µM	18.7 µM	8.2 µM	4.38	1.92	6.37	1.45	3.32	1.00	27.2 µM							
[NH2][Pt]([Cl])([Cl])[NH]C1CCCCC1 [Complex 6]	0.5 µM	1.26	1.00	0.63 µM	6.98 µM	4.19 µM	11.1	6.65	12.0	1.08	1.80	1.00	7.55 µM							
